Results as given in BindingDB's records for doi:10.1021/jm00095a005 (Pfizer, 1992).

Target: Platelet-activating factor receptor (Oryctolagus cuniculus)
Assay: In vitro inhibition of PAF-induced aggregation of rabbit washed platelets.

IC50 | Compound
1.3 nM | CCOC(=O)C1=C(c2ccc(-n3c(C)nc4cnccc43)cc2)N=C(C)C(C(=O)OC(C)(C)C)C1c1ccccc1Cl (stereo unspecified)
22 nM | CCOC(=O)C1=C(c2ccc(-n3c(C)nc4ccncc43)cc2)N=C(C)C(C(=O)Nc2ccccn2)C1c1ccccc1Cl (stereo unspecified)
30 nM | CCOC(=O)C1=C(c2ccc(-n3c(C(F)(F)F)nc4cnccc43)cc2)N=C(C)C(C(=O)Nc2ccccn2)C1c1ccccc1Cl (stereo unspecified)
200 nM | CCOC(=O)C1=C(c2ccc(-c3ocnc3C)cc2)N=C(C)C(C(=O)Nc2ccccn2)C1c1ccccc1Cl (stereo unspecified)
5.6 nM | CCOC(=O)C1=C(c2ccc(-n3c(C)nc4cnccc43)cc2)N=C(C)C(C(N)=O)C1c1ccccc1Cl (stereo unspecified)
23 nM | CCOC(=O)C1=C(c2ccc(-n3ccnc3C)cc2)N=C(C)C(C(=O)Nc2ccccn2)C1c1ccccc1Cl (stereo unspecified)
14 nM | CCOC(=O)C1=C(c2ccc(-n3c(C)nc4cnccc43)cc2)N=C(C)C(C(=O)O)C1c1ccccc1Cl (stereo unspecified)
270 nM | CCOC(=O)C1=C(c2ccc(-n3c(C)nc4c(OC)ncnc43)cc2)N=C(C)C(C(=O)Nc2ccccn2)C1c1ccccc1Cl (stereo unspecified)
1.6 nM | CCOC(=O)C1=C(c2ccc(-n3c(C)nc4cnccc43)cc2)N=C(C)C(C(=O)OC)C1c1ccccc1Cl (stereo unspecified)
3.2 nM | CCOC(=O)C1=C(c2ccc(-n3c(C)nc4cnccc43)cc2)N=C(C)C(C(=O)NC(C)(C)C)C1c1ccccc1Cl (stereo unspecified)
25 nM | CCOC(=O)C1=C(c2ccc(-n3c(C)nc4cnccc43)cc2)N=C(C)C(C(=O)Nc2ccccn2)C1c1ccc(C#N)cc1 (stereo unspecified)
> 10000 nM | CCOC(=O)C1=C(c2ccc(-n3nc(C)cc3C)cc2)N=C(C)C(C(=O)Nc2ccccn2)C1c1ccccc1Cl (stereo unspecified)
12 nM | CCOC(=O)C1=C(c2ccc(-n3c(C)nnc3C)cc2)N=C(C)C(C(=O)Nc2ccccn2)C1c1ccccc1Cl (stereo unspecified)
2.1 nM | CCOC(=O)C1=C(c2ccc(-c3c(C)nc4ccccn34)cc2)N=C(C)C(C(=O)Nc2ccccn2)C1c1ccccc1Cl (stereo unspecified)
33 nM | CCOC(=O)C1=C(c2ccc(-n3c(C)nc4cnccc43)cc2)N=C(C)C(C(=O)Nc2ccccn2)C1c1cccnc1 (stereo unspecified)
14 nM | CCOC(=O)C1=C(c2ccc(-n3c(C)nc4cnccc43)cc2)N=C(C)C(C(=O)Nc2ccccn2)C1c1ccccn1 (stereo unspecified)
580 nM | CCOC(=O)C1=C(c2ccc(-n3cnc(C)c3)cc2)N=C(C)C(C(=O)Nc2ccccn2)C1c1ccccc1Cl (stereo unspecified)
5 nM | CCOC(=O)C1=C(c2ccc(-c3c(C)nc4sccn34)cc2)NC(C)=C(C(=O)Nc2ccccn2)C1c1ccccc1Cl (stereo unspecified)
13 nM | CCOC(=O)C1=C(c2ccc(-n3c(C)nc4cnccc43)cc2)N=C(C)C(C(=O)Nc2ccccn2)C1c1cccnc1Cl (stereo unspecified)
13 nM | CCOC(=O)C1=C(c2ccc(-n3cc(C)nc3C)cc2)N=C(C)C(C(=O)Nc2ccccn2)C1c1ccccc1Cl (stereo unspecified)
3.1 nM | CCOC(=O)C1=C(c2ccc(-n3c(C)nc4cnccc43)cc2)N=C(C)C(C(=O)Nc2ccccn2)C1c1csc2ccccc12 (stereo unspecified)
3.2 nM | CCOC(=O)C1=C(c2ccc(-n3c(C)nc4cnccc43)cc2)N=C(C)C(C(=O)Nc2ccccn2)C1c1cccc2c1OCO2 (stereo unspecified)
5.9 nM | CCOC(=O)C1=C(c2ccc(-n3c(C)nc4c(C)nc(C)cc43)cc2)N=C(C)C(C(=O)Nc2ccccn2)C1c1ccccc1Cl (stereo unspecified)
190 nM | CCCCc1nc2cnccc2n1-c1ccc(C2=C(C(=O)OCC)C(c3ccccc3Cl)C(C(=O)Nc3ccccn3)C(C)=N2)cc1 (stereo unspecified)
2.3 nM | CCOC(=O)C1=C(c2ccc(-n3c(C)nc4cnccc43)cc2)N=C(C)C(C(=O)Nc2ccccn2)C1c1ccccc1OC(F)(F)F (stereo unspecified)
28 nM | CCOC(=O)C1=C(c2ccc(-n3c(C)nc4cccnc43)cc2)N=C(C)C(C(=O)Nc2ccccn2)C1c1ccccc1Cl (stereo unspecified)
